Assays:
Assay in all cases: PARP-isoform screening, Chemiluminescent Activity Assay Kit
Format in all cases: biochemical
TNKS1 (PARP5A) = target: T1, TNKS1 (PARP5A) (Homo sapiens, UniProt O95271); conditions: Figure 5
T1 sequence (O95271 1-1327): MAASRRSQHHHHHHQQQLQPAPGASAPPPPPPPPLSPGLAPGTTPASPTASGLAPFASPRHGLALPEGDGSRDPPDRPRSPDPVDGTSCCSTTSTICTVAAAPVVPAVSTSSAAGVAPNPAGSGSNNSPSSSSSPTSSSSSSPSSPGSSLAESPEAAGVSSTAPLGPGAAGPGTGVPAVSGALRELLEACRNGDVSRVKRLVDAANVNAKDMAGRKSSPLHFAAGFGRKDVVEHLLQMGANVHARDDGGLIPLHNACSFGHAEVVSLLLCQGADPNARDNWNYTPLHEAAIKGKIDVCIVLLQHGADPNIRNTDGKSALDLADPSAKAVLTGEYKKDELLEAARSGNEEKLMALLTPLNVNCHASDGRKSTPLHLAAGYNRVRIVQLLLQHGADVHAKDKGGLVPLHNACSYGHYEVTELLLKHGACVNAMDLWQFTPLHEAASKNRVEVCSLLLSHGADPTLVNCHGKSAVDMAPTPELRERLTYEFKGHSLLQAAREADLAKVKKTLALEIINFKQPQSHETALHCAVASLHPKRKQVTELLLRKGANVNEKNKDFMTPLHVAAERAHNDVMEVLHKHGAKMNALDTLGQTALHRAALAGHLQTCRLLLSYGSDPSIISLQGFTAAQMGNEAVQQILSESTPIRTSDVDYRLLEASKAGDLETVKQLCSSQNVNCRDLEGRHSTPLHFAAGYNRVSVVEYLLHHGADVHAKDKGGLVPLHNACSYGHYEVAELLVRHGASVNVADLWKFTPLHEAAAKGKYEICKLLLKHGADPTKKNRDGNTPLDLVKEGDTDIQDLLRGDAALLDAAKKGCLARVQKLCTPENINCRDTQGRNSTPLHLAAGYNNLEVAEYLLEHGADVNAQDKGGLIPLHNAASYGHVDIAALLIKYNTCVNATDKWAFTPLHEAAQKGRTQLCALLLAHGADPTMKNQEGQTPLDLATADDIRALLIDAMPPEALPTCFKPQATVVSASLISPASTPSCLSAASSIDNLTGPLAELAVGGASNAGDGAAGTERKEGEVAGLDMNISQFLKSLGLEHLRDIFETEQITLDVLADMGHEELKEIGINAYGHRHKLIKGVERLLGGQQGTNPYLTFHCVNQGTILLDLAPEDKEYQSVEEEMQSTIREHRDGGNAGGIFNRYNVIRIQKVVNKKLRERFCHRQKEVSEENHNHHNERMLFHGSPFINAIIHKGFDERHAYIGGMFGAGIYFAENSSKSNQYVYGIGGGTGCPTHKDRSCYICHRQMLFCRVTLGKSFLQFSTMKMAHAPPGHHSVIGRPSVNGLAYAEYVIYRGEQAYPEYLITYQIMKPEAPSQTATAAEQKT

PARP2 = PARP2 (Homo sapiens, UniProt Q9UGN5); conditions: at 0.5 μM concentration
Sequence of PARP2 (Q9UGN5 whole entry): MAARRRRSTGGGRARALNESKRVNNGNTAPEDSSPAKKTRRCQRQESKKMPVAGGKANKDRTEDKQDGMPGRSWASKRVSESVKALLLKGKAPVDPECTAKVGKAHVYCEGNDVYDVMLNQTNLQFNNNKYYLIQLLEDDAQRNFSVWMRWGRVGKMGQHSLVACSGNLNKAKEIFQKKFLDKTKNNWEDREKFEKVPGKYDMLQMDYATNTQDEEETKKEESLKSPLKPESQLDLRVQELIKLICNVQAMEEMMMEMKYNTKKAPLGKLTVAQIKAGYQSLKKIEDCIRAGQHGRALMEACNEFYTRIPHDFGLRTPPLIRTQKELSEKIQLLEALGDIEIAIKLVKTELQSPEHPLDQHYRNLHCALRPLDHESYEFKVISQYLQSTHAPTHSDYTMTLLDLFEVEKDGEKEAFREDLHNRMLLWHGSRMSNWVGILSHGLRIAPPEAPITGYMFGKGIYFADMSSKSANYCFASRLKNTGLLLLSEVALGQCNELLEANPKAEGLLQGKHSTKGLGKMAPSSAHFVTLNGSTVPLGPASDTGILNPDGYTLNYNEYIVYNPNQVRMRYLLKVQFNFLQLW

PARP3 = target: T2, PARP3 (Homo sapiens, UniProt Q9Y6F1); conditions: Figure 5
T2 sequence (Q9Y6F1 1-533): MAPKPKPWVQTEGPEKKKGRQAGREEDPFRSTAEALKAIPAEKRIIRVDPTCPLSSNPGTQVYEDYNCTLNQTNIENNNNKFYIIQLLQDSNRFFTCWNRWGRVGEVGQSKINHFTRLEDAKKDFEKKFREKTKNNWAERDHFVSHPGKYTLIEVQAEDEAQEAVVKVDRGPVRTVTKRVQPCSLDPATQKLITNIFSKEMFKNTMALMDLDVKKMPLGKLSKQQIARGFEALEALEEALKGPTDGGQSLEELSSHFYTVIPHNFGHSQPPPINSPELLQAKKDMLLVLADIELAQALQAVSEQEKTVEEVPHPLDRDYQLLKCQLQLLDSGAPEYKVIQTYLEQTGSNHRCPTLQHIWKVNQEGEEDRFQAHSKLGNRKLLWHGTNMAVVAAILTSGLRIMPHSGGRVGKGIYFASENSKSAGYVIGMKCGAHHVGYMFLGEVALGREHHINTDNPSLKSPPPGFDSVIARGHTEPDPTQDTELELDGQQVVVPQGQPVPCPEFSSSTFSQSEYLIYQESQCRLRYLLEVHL

PARP8 = target: T3, PARP8 (Homo sapiens, UniProt Q8N3A8); conditions: Figure 5
T3 sequence (Q8N3A8 1-854): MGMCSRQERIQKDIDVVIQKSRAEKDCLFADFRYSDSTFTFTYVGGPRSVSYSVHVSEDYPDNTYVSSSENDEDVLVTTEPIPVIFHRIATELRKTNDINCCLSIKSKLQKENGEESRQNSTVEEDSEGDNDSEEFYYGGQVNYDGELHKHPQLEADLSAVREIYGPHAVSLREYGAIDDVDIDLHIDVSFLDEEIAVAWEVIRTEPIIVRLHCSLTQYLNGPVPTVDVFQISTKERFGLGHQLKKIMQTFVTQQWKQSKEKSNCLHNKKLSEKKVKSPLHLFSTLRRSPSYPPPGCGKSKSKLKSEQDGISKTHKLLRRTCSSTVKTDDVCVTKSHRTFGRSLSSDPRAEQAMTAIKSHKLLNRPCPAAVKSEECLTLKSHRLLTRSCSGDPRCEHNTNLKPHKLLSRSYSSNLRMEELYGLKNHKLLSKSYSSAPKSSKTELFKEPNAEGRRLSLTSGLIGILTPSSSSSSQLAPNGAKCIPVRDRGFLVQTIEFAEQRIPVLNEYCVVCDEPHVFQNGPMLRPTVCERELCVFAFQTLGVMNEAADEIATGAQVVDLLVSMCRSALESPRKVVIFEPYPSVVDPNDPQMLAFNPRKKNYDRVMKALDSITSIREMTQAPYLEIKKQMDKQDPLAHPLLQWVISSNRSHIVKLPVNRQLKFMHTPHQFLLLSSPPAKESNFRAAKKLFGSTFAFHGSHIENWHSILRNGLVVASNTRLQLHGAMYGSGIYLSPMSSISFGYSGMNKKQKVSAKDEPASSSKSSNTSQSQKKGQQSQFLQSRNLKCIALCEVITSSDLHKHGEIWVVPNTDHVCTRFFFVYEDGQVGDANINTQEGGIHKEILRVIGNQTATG

PARP14 = PARP14 (Homo sapiens, UniProt Q460N5); conditions: Figure 5
Sequence of PARP14 (Q460N5 whole entry): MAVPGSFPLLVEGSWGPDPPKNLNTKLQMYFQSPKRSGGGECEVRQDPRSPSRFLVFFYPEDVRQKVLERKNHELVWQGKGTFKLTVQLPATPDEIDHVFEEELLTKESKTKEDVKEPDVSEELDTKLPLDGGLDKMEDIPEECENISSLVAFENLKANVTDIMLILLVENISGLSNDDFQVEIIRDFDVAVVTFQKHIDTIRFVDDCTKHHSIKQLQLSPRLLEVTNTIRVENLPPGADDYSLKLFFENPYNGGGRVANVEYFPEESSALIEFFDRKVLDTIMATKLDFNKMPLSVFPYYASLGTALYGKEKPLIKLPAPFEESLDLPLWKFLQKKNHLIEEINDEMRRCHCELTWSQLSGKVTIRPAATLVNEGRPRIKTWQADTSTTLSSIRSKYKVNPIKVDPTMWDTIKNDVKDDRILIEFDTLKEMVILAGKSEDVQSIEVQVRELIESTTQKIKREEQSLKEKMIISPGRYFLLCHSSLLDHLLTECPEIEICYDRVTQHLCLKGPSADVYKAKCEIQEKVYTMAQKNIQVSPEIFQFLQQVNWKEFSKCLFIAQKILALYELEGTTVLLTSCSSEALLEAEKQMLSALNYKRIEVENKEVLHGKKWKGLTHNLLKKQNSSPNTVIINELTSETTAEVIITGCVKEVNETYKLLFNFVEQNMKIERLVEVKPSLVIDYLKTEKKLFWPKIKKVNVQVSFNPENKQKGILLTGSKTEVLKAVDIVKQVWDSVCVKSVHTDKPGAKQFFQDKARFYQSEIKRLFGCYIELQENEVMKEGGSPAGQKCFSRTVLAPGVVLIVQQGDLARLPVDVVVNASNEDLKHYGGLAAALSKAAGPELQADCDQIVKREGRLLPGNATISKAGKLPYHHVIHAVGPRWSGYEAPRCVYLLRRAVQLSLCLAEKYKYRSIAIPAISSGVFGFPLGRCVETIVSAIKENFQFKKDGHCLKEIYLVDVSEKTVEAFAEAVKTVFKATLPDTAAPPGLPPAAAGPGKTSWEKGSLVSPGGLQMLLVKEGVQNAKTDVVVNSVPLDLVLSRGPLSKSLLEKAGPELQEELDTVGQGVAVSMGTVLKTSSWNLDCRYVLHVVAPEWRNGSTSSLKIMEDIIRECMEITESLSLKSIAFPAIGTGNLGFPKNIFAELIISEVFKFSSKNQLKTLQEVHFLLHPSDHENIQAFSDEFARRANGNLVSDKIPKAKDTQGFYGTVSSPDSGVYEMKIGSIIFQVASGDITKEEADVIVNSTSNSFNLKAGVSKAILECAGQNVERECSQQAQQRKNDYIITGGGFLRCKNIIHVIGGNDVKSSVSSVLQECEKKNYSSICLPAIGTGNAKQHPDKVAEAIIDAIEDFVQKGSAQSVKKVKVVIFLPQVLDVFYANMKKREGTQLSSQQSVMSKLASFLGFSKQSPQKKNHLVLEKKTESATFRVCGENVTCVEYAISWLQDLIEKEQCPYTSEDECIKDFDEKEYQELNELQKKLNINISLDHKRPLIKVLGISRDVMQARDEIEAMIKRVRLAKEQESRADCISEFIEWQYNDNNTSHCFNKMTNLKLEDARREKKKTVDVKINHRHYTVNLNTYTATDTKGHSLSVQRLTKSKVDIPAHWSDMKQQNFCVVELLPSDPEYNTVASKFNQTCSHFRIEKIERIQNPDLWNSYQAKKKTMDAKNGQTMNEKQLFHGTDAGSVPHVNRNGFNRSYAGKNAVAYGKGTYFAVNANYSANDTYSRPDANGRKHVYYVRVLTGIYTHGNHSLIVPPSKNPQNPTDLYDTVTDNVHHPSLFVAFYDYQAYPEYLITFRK

TNKS1 inhibition (TNKS1 (PARP5A)): substantially inhibited
PARP2 inhibition (PARP2): complete inhibition
PARP3 inhibition (PARP3): substantially inhibited
PARP8 inhibition (PARP8): did not interfere
PARP14 inhibition (PARP14): did not interfere
Compound: NC(=O)c1cccc2c1O/C(=C\c1ccc(O)cc1)C(=O)N2 [Compound 49, (Z)-2-(4-Hydroxybenzylidene)-3-oxo-3,4-dihydro-2H-benzo[b][1,4]oxazine-8-carboxamide]

— publication PMC8142146 (Bioorganic chemistry, 2020)
